Several values for one entry are separate records, joined by “and”; a condition that tells them apart may be missing. Equal entries are not always repeated.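 Method: 48-hour compound exposure of cells in 96-well plates, five concentrations, linear interpolation of endpoints. At the GI50, growth is halved. At the TGI there is no net growth.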
Key:
Experiment in all cases: inhibition of tumour cell growth, NCI panel, 48 h
A549 NSCLC = system: A549 NSCLC
CAKI-1 renal = system: CAKI-1 renal
HCC-2998 colon = system: HCC-2998 colon
NCI-H226 lung = system: NCI-H226 lung
NCI-H23 lung = system: NCI-H23 lung
NCI-H460 lung = system: NCI-H460 lung
OVCAR-8 ovarian = system: OVCAR-8 ovarian
SK-MEL-28 melanoma = system: SK-MEL-28 melanoma
SR leukemia = system: SR leukemia
UACC-257 melanoma = system: UACC-257 melanoma

Structure (SMILES)	GI50 (A549 NSCLC)	TGI (A549 NSCLC)	GI50 (CAKI-1 renal) [µM]	TGI (CAKI-1 renal)	GI50 (HCC-2998 colon) [µM]	TGI (HCC-2998 colon)	GI50 (NCI-H226 lung)	TGI (NCI-H226 lung)	GI50 (NCI-H23 lung)	TGI (NCI-H23 lung)	GI50 (NCI-H460 lung)	TGI (NCI-H460 lung)	GI50 (OVCAR-8 ovarian)	TGI (OVCAR-8 ovarian)	GI50 (SK-MEL-28 melanoma) [µM]	TGI (SK-MEL-28 melanoma)	GI50 (SR leukemia)	TGI (SR leukemia) [µM]	GI50 (UACC-257 melanoma)	TGI (UACC-257 melanoma)
O=C(CC(O)c1ccncc1)c1ccccc1 (configuration not stated)	29 µM	> 100 µM	23.1	> 100 µM	35	> 100 µM	33.9 µM	> 100 µM	42.8 µM	> 100 µM	27.1 µM	89.2 µM	33.8 µM	> 100 µM	21.9	70.4 µM	18.9 µM	47.6	23.8 µM	80.4 µM
O=c1[nH]c(=O)n(C2CC(O)C(CO)O2)cc1C#Cc1cc(C(F)(F)F)cc(C(F)(F)F)c1 (configuration not stated)	–	> 100 µM	–	> 100 µM	–	> 100 µM	–	> 100 µM	–	> 89.3 µM	–	> 100 µM	–	> 100 µM	–	> 100 µM	–	> 100	–	> 100 µM
O=C(NCC(=O)N1CC[C@H](NC2CCC(O)(c3ccc(-c4ncccn4)cn3)CC2)C1)c1cccc(C(F)(F)F)c1 (some centres not stated)	> 100 µM	> 100 µM	45.7	> 100 µM	> 100	> 100 µM	> 100 µM	> 100 µM	52.1 µM	> 100 µM	86.5 µM	> 100 µM	> 100 µM	> 100 µM	> 100	> 100 µM	25.4 µM	> 100	40.8 µM	> 100 µM
C[N+](C)(C)Cc1c(CC#N)[nH]c2ccccc12	–	> 100 µM	–	> 100 µM	–	> 100 µM	–	> 100 µM	–	> 100 µM	–	> 100 µM	–	> 100 µM	–	> 100 µM	–	> 100	–	> 100 µM
COc1cc(OC)c2cc(C(=O)O)c(=O)oc2c1	> 100 µM	> 100 µM	61.4	> 100 µM	> 100	> 100 µM	> 100 µM	> 100 µM	> 100 µM	> 100 µM	> 100 µM	> 100 µM	> 100 µM	> 100 µM	> 29.5	> 100 µM	> 100 µM	> 100	> 85.9 µM	> 100 µM
COc1cc(C2CC(c3ccc(Nc4ccnc5cc(Cl)ccc45)cc3)=NN2C=O)cc(OC)c1OC (configuration not stated)	6.9 µM	> 100 µM	5.47	26.5 µM	5.52	> 100 µM	34.5 µM	> 100 µM	20.4 µM	> 100 µM	4.42 µM	> 100 µM	9.98 µM	> 100 µM	2.22	4.81 µM	2.58 µM	6.49	2.84 µM	8.28 µM
COc1cc2c(cc1OCCCCCn1c(-c3ccco3)nc3ccccc31)N=C[C@@H]1CCCN1C2=O	< 0.01 µM	> 100 µM	< 0.01	0.0318 µM	< 0.01	0.0193 µM	< 0.01 µM	< 0.0136 µM	< 0.01 µM	< 0.01 µM	< 0.01 µM	14.3 µM	< 0.01 µM	> 36.8 µM	< 0.01	< 0.0149 µM	< 0.01 µM	< 0.01	< 0.01 µM	< 0.01 µM
CC(C)=CCc1ccc(O)c(=O)cc1C(C)C	0.656 µM	> 100 µM	0.29	2.4 µM	0.583	29.8 µM	2.37 µM	> 100 µM	0.701 µM	> 51.3 µM	0.42 µM	> 33.1 µM	0.413 µM	> 100 µM	0.917	> 100 µM	0.465 µM	> 100	1.59 µM	> 100 µM
O=C1CSC(=S)N1Cc1cccnc1	23.9 µM	58.9 µM	12.4	33.4 µM	19.8	36.9 µM	42.3 µM	> 100 µM	15.1 µM	48 µM	18.4 µM	48.7 µM	11.3 µM	38 µM	11.4	27.3 µM	3.56 µM	> 100	5.97 µM	21.9 µM
O=C(Nc1ccc(Cl)cc1)c1ccc([N+](=O)[O-])o1	2.64 µM	9.21 µM	2.34	10.1 µM	1.44	2.98 µM	1.93 µM	4.6 µM	1.81 µM	4.54 µM	2.22 µM	5.55 µM	2.99 µM	12.8 µM	1.78	3.79 µM	0.553 µM	16.5	1.97 µM	5.25 µM
COc1cc(C(=O)N2CCN(c3ccccc3OC)CC2)c(N)cc1OCc1ccccc1	34.8 µM	> 100 µM	37.9	> 100 µM	40	> 100 µM	38.3 µM	> 100 µM	48.4 µM	> 100 µM	33.1 µM	> 100 µM	38.3 µM	> 100 µM	43.4	> 100 µM	22.5 µM	48.7	39 µM	> 100 µM
Oc1ccc2c3c1OC1C(=NN=C4CCC5(O)C6Cc7ccc(O)c8c7C5(CCN6CC5CC5)C4O8)CCC4(O)C(C2)N(CC2CC2)CCC314 (configuration not stated)	–	42.3 µM	–	> 100 µM	–	52.7 µM	–	> 100 µM	–	99 µM	–	46.1 µM	–	84 µM	–	49.4 µM	–	80.4	–	43.1 µM
Nc1nc(Cl)c(N=Nc2ccc(Cl)cc2)c(NCC2(CO)CC(OCc3ccccc3)C2)n1 (configuration not stated)	14.7 µM and 62.7 µM and 13.8 µM	51.2 µM and > 100 µM and 32.1 µM	0.768	3.68 µM and 14.2 µM and 5.52 µM	–	87.3 µM and > 100 µM and 16.9 µM	6.92 µM and 18.9 µM and 6.68 µM	28.9 µM and > 100 µM and 24.9 µM	3.76 µM and 25 µM and 3.09 µM	24.9 µM and > 100 µM and 13.9 µM	7.43 µM and 29.4 µM and 3.85 µM	86.1 µM and > 100 µM and 17.7 µM	3.69 µM and 16.1 µM and 4.39 µM	16.3 µM and > 100 µM and 23.9 µM	–	> 100 µM and 33.4 µM	2.95 µM and 6.33 µM and 3.1 µM	–	32.5 µM and > 95.4 µM and 15.6 µM	> 100 µM and 46 µM

— PubChem BioAssay (NCI)
